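Values below derive from 48-hour exposures of cells grown in 96-well plates, with endpoints linearly interpolated between the two concentrations bracketing the appropriate inhibition level. At the TGI there is no net growth.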 *1 amine or outer side, *2 acyl side, *3 side chain or, on linkers, in order; H or OH if unused. Where a SMILES comes first, the peptide text is derived from it. Bridges are numbered along the chain shown (N, C = ends). Roman numbers before positions name the chains, in order. [ ]: non-standard residue; d: D form. Actinocin(9to1) = Cc1c2oc3c(C)ccc(C(=O)[*:1])c3nc-2c(C(=O)[*:2])c(N)c1=O; Hyp = O=C(O)[CH]1C[CH](O)CN1; NMeV = CN[CH](C(=O)O)C(C)C; Sar = CNCC(=O)O
Legend:
Test in all cases: NCI-60 cell line screen, 48 h
[1] = tested on: COLO 205 colon
[2] = tested on: HCT-15 colon
[3] = tested on: MALME-3M melanoma
[4] = tested on: MDA-MB-231 breast
[5] = tested on: MDA-N
[6] = tested on: NCI-H23 lung
[7] = tested on: OVCAR-3 ovarian
[8] = tested on: RPMI-8226 leukemia
[9] = tested on: SK-MEL-2 melanoma
[10] = tested on: T-47D breast

SMILES | TGI [1] | TGI [2] | TGI [3] | TGI [4] | TGI [5] | TGI [6] | TGI [7] | TGI [8] | TGI [9] | TGI [10]
O=C1CC(=O)NC(=NN2C(=O)CSC2C(=O)c2ccco2)N1 (stereo not given) | > 100 µM | > 100 µM | > 100 µM | > 100 µM | > 100 µM | > 100 µM | > 100 µM | > 100 µM | > 100 µM | > 100 µM
COC1=C(C)C(=O)C2=C(C1=O)C1C3CC4=C(C(=O)C(OC)=C(C)C4=O)C(CNC(=O)C(C)O)N3C(C#N)C(C2)N1C (stereo not given) | < 0.01 µM | 10.5 µM | < 0.0139 µM | 0.0178 µM | < 0.0107 µM | 0.0183 µM | < 0.01 µM | < 0.215 µM | < 0.01 µM | < 0.01 µM
Cc1cc2c(c(S(=O)(=O)c3ccccc3[N+](=O)[O-])c1)NCCC2 | > 100 µM | > 100 µM | > 100 µM | > 100 µM | > 100 µM | > 100 µM | > 100 µM | > 100 µM | > 100 µM | 40.2 µM
O=C(c1cccnc1)N1N=C(c2ccccc2)CC1(O)c1cc(F)c(Cl)cc1Cl (stereo not given) | 31 µM | 93.4 µM | 83 µM | 35.4 µM | > 100 µM | > 100 µM | 24.5 µM | 55.6 µM | 45.8 µM | 62.4 µM
CN1CCc2c(sc3ncn(Nc4ccc(Cl)cc4)c(=N)c23)C1 | > 100 µM | > 100 µM | > 100 µM | > 100 µM | > 100 µM | > 100 µM | > 100 µM | > 100 µM | > 100 µM | > 100 µM
Cc1c(C)c(C)c(-n2c(=O)n(C)c(=O)n2-c2cc(C(C)(C)C)cc(C(C)(C)C)c2O)c(C)c1C | 20 µM | 22.5 µM | 24.9 µM | 17 µM | 22.9 µM | 24 µM | 19.3 µM | 29 µM | 20.3 µM | 18.6 µM
C=CC(=O)N1C/C(=C\c2ccc([N+](=O)[O-])cc2)C(=O)/C(=C/c2ccc([N+](=O)[O-])cc2)C1 | 0.273 µM | 0.272 µM | 0.643 µM | 0.278 µM | 0.856 µM | 0.791 µM | 1.08 µM | > 100 µM | 1.8 µM | 1.79 µM
CC(=O)O[C@H]1C(=O)[C@@]2(C)[C@H]([C@H](OC(=O)c3ccccc3)[C@]3(O)C[C@H](OC(=O)[C@H](O)[C@@H](NC(=O)c4ccccc4)c4cccc(N(C)C)c4)C(C)=C1C3(C)C)[C@]1(OC(C)=O)CO[C@@H]1C[C@@H]2O | 0.285 µM | 74.5 µM | > 67.1 µM | 36.1 µM | 0.0238 µM | > 75 µM | 0.586 µM | 0.236 µM | > 75 µM | 30.7 µM
COC1=C(Cl)C(=O)c2c(O)ccc(O)c2C1=O | 0.53 µM | 3.23 µM | 1.1 µM | 3.19 µM | 4.8 µM | 4.62 µM | 1.04 µM | 1.45 µM | 3.25 µM | 3.61 µM
O=C(O)c1c2c(cc3c1CC1(Cc4cc5c(cc4C1=O)CCC5)C3)CCC2 (stereo not given) | > 100 µM | > 100 µM | > 100 µM | > 100 µM | > 100 µM | > 100 µM | > 100 µM | > 100 µM | > 100 µM | > 100 µM
Cc1c2oc3c(C)ccc(C(=O)NC4C(=O)NC(C(C)C)C(=O)N5CC(O)CC5C(=O)N(C)CC(=O)N(C)C(C(C)C)C(=O)OC4C)c3nc-2c(C(=O)NC2C(=O)NC(C(C)C)C(=O)N3CC(O)CC3C(=O)N(C)CC(=O)N(C)C(C(C)C)C(=O)OC2C)c(N)c1=O (stereo not given) (I: TV[Hyp][Sar][NMeV] / II: TV[Hyp][Sar][NMeV]; ester I:1-I:C, II:1-II:C; linker I:N-II:N via Actinocin(9to1); configuration not given here) | > 1 µM | > 1 µM | > 1 µM | > 1 µM | > 1 µM | > 1 µM | > 1 µM | > 1 µM | > 1 µM | > 1 µM
CC(C)(C)NC(=O)/C(=C\Sc1ccccc1)c1ccccc1 | > 100 µM | > 100 µM | > 100 µM | > 100 µM | > 100 µM | > 100 µM | > 100 µM | > 100 µM | > 100 µM | > 100 µM
O[C@@H]1CCC[C@@H]2NC[C@@H](c3ccc4c(c3)OCO4)[C@H]12 | > 100 µM | > 100 µM | > 100 µM | > 100 µM | > 100 µM | > 100 µM | > 100 µM | > 100 µM | > 100 µM | > 100 µM
c1ccc(Nc2nn3c(CCCCCCCCc4nnc5sc(Nc6ccccc6)nn45)nnc3s2)cc1 | 42.8 µM | > 100 µM | > 100 µM | > 100 µM | 46.6 µM | > 100 µM | > 100 µM | > 100 µM | > 100 µM | 67.1 µM
C#C[C@@]1(O)CCCC2=CC3(CC[C@]21C)SCCS3 | > 100 µM | > 100 µM | > 100 µM | > 100 µM | > 100 µM | > 100 µM | > 100 µM | > 100 µM | > 100 µM | > 100 µM
N/C(=N\Nc1ccc(Cl)cc1)c1cnccn1 | 40.1 µM | > 100 µM | > 100 µM | > 100 µM | > 100 µM | > 100 µM | > 100 µM | > 100 µM | > 100 µM | > 100 µM
